Test results published in publication PMC6892603 (Bioorganic & medicinal chemistry letters, 2019).

How the values were obtained:
T. gondii RH-dTom = test: Activity against T. gondii RH-dTom; assay type: cell-based, Toxoplasma gondii
[1] = Aqueous solubility by nephelometry; assay type: physicochemical; settings: for Sol6.5: pH 6.5 phosphate buffer
[2] = In vitro intrinsic clearance in human liver microsomes; assay type: in vitro ADME
T. cruzi CYP51 = T. cruzi CYP51 (Trypanosoma cruzi, UniProt Q7Z1V1); test: T. cruzi CYP51 heme ligand binding; settings: Soret band
[3] = tested on: panel of cancer cell lines; settings: read-out: IC50 against a panel of cancer cell lines; previously reported; cited from earlier work
[4] = Cytotoxicity screen, growth inhibition of HFF cells; settings: human
[5] = Cytotoxicity screen, growth inhibition of HC-04 cells; settings: human
[6] = tested on: L. donovani MHOM-ET 67/L82; test: Activity against L. donovani amastigotes, axenic assay
[7] = Cytotoxicity screen, growth inhibition of HEK 293T cells; settings: human, Cytotoxicity IC50 HEK 293T, human kidney
[8] = tested on: Tulahuen C4 strain of Trypanosoma cruzi; test: microbe, parasite or virus in culture; settings: read-out: T. cruzi IC50

Chain of T. cruzi CYP51 (Q7Z1V1 whole entry): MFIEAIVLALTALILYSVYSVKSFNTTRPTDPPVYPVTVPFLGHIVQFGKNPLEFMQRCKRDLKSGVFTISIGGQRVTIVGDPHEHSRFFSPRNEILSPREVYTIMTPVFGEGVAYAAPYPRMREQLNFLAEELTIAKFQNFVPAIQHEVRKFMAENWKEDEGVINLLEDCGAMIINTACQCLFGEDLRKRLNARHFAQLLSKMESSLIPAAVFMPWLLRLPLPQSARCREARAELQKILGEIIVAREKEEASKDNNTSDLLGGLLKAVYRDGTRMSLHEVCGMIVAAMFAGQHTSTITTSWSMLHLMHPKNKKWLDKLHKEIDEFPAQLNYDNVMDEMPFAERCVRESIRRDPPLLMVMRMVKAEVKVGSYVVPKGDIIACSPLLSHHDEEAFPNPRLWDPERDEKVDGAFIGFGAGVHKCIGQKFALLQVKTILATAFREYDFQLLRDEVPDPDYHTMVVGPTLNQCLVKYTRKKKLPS

Structure (SMILES) | Sol6.5 [1] | microsomal CLint [2] | T. cruzi CYP51 spectral response (T. cruzi CYP51) | IC50 [4] | IC50 [5] | further results
CN1CCN(c2ccc(S(=O)(=O)NCc3ccc(C(=O)Nc4cccnc4)cc3)cc2)CC1 [Compound 2] | 25 to 50 µg/mL | 45 µL/min/mg | moderate type II spectral response | > 50 µM | > 50 µM | Effect on growth of Toxoplasma gondii (T. gondii RH-dTom): no effect on the growth; IC50 [3]: 0.01 to 1 µM; Effect on growth of Leishmania donovani [6]: no effect on the growth
O=C(Nc1cccnc1)c1ccc(CNS(=O)(=O)c2ccc(N3CCOCC3)cc2)cc1 [Compound 5] | 12.5 to 25 µg/mL | 69 µL/min/mg | – | – | > 50 µM | Sol2.0 ([1]; 0.01 M HCl (approx. pH 2.0)): 50 to 100 µg/mL; IC50 [7]: < 1 µM
Cc1ncccc1NC(=O)c1ccc(CNS(=O)(=O)c2ccc(N3CCN(C)CC3)cc2)cc1 [Compound 14] | – | – | did not cause any changes | – | – | –
CN1CCN(c2ccc(S(=O)(=O)NCc3ccc(-c4nc(-c5cccnc5)no4)cc3)cc2)CC1 [Compound 19] | 25 to 50 µg/mL | – | – | > 50 µM | > 50 µM | –
O=C(Cn1ccnc1[N+](=O)[O-])NCc1ccccc1 [benznidazole] | – | – | – | – | – | IC50 [8]: 1.2 to 4.2 µM
